In the Biogen ADME set (Fang et al. 2023):
Values after ≈ are worked out from the molar mass of the structure shown.

Conditions: for aqueous solubility: pH 6.8

SMILES | MDR1-MDCK efflux ratio | intrinsic clearance, human liver microsomes [mL/min/kg] | intrinsic clearance, rat liver microsomes [mL/min/kg] | aqueous solubility [µg/mL] | fraction unbound, human plasma | fraction unbound, rat plasma
CC(C)n1cc(CN2CCC(c3nc(N(C)C)no3)CC2)cn1 | 1.79 | ≤ 4.74 | 179 |  |  | 
O=C(/C=C/N1C[C@H]2C[C@@H]1CN2c1ccccn1)c1ccccc1O | 0.976 |  |  | 42 (≈ 131 µM) |  | 
Cc1ccc(/C(N)=N/OC(=O)c2ccc3c(c2)OCCO3)cc1 |  |  |  | 0.33 (≈ 1.06 µM) |  | 
CC(C)NC(=O)COc1cccc(-c2nc(Nc3ccc4[nH]ncc4c3)c3ccccc3n2)c1 | 20 | 42.7 | 1560 |  | 0.00041 | 0.00313
N#Cc1cc(-c2ccccc2)sc1N |  |  |  | 3 (≈ 15 µM) |  | 
O=C(c1ccc2[nH]ccc2c1)N1CCCC(c2cccc(-c3ccc(F)cc3)n2)C1 (stereo not drawn) | 1.6 | 72.8 | 571 | 2.35 (≈ 5.88 µM) |  | 
Cc1nc2ccccc2c(N)c1C(=O)/C=C/c1ccccc1 | 0.244 | 50 | 922 | 41.4 (≈ 144 µM) |  | 
Cc1ccc(C(=O)Nc2ccccc2-c2ccccc2)o1 | 0.465 | 257 | 503 | 35.5 (≈ 128 µM) |  | 
COc1ccc(CC(=O)N2CCc3[nH]c4ccc(Cl)cc4c3C2)cc1OC | 6.37 | 120 | 675 | 6.7 (≈ 17.4 µM) |  | 
Cc1cnc(C(=O)N[C@H]2CCOC[C@@H]2O)cc1Cc1ccc(-c2cscn2)cc1 | 6.89 | ≤ 4.74 | 34.8 | 61.9 (≈ 151 µM) |  | 
CN1CCCn2c1cc(OCc1cc(F)c(Oc3ccc(C(F)(F)F)nc3)c(F)c1)nc2=O | 12 | 19.6 | 126 |  |  | 
O=S(=O)(NCCC(c1ccccc1)c1ccccc1)c1ccc(Cl)cc1 |  | 396 | 9320 |  |  | 
O=C1CCC(=O)N1Cc1nc(C23CC4CC(CC(C4)C2)C3)cs1 |  | 105 | 1400 | 42.8 (≈ 129 µM) |  | 
N#Cc1ccc(CNc2cnc3ccccc3c2)o1 | 0.343 | 187 | 238 |  |  | 
CC#CC(=O)N1CC[C@@H](n2c(=O)n(-c3ccc(Oc4ccccc4)cc3)c3c(N)ncnc32)C1 | 28.9 | 21.3 | 187 | 64.6 (≈ 142 µM) | 0.0863 | 0.0467
Cc1cc(Nc2ccc(F)cn2)cc(C2CCN(C(=O)COc3ccccc3F)C2)n1 (stereo not drawn) | 9.5 | 115 | 507 | 55.6 (≈ 131 µM) |  | 
Fc1ccc(F)c(CN2CCN(Cc3ccc4c(c3)OCO4)CC2)c1 | 0.645 | 105 | 409 | 26.9 (≈ 77.7 µM) |  | 
Cc1nc([C@H]2CC[C@H](CNC(=O)CN3CCC(c4ccccc4)CC3)CC2)ccc1C(N)=O | 14.9 | 37.3 | 390 | 70.2 (≈ 156 µM) |  | 
COc1ccc(C(=O)N2CCN(C(=O)/C=C/c3ccc(Br)cc3)CC2)cc1 | 0.858 |  |  |  |  | 
CC(C)(C)c1ccc(=O)n(CC2CN(CC3(O)CCCC3)C2)n1 | 18.8 | 6.33 | 110 | 45.8 (≈ 143 µM) |  | 
Oc1cncc(/C=C/c2nc(-c3ccncc3)no2)c1 |  | 31.8 | 239 |  |  | 
O=c1[nH]c2cc3ccccc3c(=O)n2c2sc3c(c12)CCCC3 |  |  |  | 15.2 (≈ 47 µM) |  | 
Fc1ccccc1CNc1nc(-c2ccccc2)no1 | 0.605 | 24.5 | 131 | 3.51 (≈ 13 µM) |  | 

Now from value to compound:

MDR1-MDCK efflux ratio | intrinsic clearance, human liver microsomes [mL/min/kg] | intrinsic clearance, rat liver microsomes [mL/min/kg] | aqueous solubility [µg/mL] | fraction unbound, human plasma | fraction unbound, rat plasma | SMILES
55.7 | 20.4 | 815 |  |  |  | Cc1ccccc1CCNC(=O)N(Cc1cccnc1)C1CCN(C)CC1
1.02 |  |  | 0.21 (≈ 0.527 µM) |  |  | Cc1ccc(NC(=O)c2c([O-])n(-c3ccc(C)cc3)n[n+]2Cc2ccccc2)cc1
0.56 | 41.3 | 226 | 24.9 (≈ 113 µM) |  |  | CCCCN(C)C(=O)Nc1cc(C)ccn1
 |  |  | 104 (≈ 506 µM) |  |  | NCC(=O)Nc1ccc2[nH]c(=O)[nH]c2c1
1.86 | ≤ 4.74 | 20.9 |  |  |  | Cc1cnc(C(C)(C)NCC(=O)N(C)C)s1
0.564 | ≤ 4.74 | 41.7 | 25.4 (≈ 111 µM) |  |  | CC(C)(C)n1cc(CNc2cccnc2)cn1
8.79 | ≤ 4.74 | 21.9 | 58.5 (≈ 221 µM) |  |  | O=C(CC1CCNCC1)NCCc1ccccc1F
 | ≤ 4.74 | ≤ 10.7 |  |  |  | Cc1cccc(CNC(=O)Cn2c(=O)oc3cccnc32)c1
65.9 | ≤ 4.74 | 53.4 |  |  |  | Cc1cc(C)c2ccc(C(=O)N3CCN(c4ncc[nH]c4=O)CC3)cc2n1
 | 11 | 305 |  |  |  | Cc1ccn(-c2ccc(NCC3CC3)nn2)n1
3.3 | 36.9 | 1120 |  |  |  | COc1ccc(CN[C@@H]2CCC[C@H]2Cc2cc(C)no2)cc1OC
0.579 | 16.5 | 742 |  |  |  | CC(C)CCCNC(=O)c1[nH]ncc1Br
 | 6.43 | 104 |  |  |  | Cc1cccc(C)c1OCC(=O)N(C)[C@@H]1CC[C@@H](N2CCOCC2)[C@@H]1O
0.812 | 8.22 | 294 | 49.2 (≈ 161 µM) |  |  | CCOC(=O)N1CCC(Nc2nc3ccccc3s2)CC1
70.8 | ≤ 4.74 | 16.8 |  |  |  | Cc1cc(C)c2ccc(C(=O)N3CCN(c4nc[nH]n4)CC3)cc2n1
0.841 | ≤ 4.74 | 44.8 | 52.8 (≈ 176 µM) |  |  | CCNC(=O)N1CCC(c2nc(-c3ccccc3)no2)CC1
0.666 | 7.77 | 46.9 |  |  |  | CCc1ccc(CNc2nncs2)o1
3.6 | 8.32 | 27.3 | 46.5 (≈ 163 µM) |  |  | O=C(NCCc1ccc2c(c1)OCO2)Nc1ccncc1
1.27 | ≤ 4.74 | ≤ 10.7 | 47.9 (≈ 235 µM) |  |  | NC(=O)COc1ncnc2ccccc12
 | 5.04 | 42.8 |  |  |  | CC(=O)N(CC(N)=O)c1ccc(C)cc1
